pIC50: −log10 of the molar value. Structures can show the parent of a compound that is named as a salt.
Biological target: rat TRPV1 (Rattus norvegicus (Rat), UniProt O35433)
Conditions: read-out: Rat IC50

Chain of rat TRPV1 (O35433 whole entry): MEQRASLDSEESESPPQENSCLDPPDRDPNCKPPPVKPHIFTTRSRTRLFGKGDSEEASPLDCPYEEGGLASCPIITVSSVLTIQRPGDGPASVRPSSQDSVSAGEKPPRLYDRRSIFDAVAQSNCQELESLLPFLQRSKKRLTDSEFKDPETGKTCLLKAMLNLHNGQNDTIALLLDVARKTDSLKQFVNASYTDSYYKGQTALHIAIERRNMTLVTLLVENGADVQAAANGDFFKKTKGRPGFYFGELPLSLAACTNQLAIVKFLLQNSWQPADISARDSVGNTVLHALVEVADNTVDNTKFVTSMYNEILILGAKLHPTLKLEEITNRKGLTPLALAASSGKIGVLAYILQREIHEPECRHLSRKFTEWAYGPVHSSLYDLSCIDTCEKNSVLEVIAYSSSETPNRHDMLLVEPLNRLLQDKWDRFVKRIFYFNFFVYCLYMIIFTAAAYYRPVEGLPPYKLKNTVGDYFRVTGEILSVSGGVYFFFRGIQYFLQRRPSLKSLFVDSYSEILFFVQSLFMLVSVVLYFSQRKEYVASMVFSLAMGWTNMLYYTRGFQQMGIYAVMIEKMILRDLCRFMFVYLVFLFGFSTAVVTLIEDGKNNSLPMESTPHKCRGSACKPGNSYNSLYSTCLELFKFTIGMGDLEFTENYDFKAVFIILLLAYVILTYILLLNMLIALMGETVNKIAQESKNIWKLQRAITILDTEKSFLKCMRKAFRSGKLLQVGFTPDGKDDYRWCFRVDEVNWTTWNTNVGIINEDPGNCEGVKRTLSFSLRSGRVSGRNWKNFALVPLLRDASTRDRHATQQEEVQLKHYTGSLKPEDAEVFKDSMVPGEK

Row | Compound | pIC50
1 | CN1CCC(Oc2nc3c(c(Nc4ccc(C(F)(F)F)cc4)n2)CCN(c2ncccc2C(F)(F)F)CC3)CC1 [Example 311, 2-[(1-Methylpiperidin-4-yl)oxy]-N-[4-(trifluoromethyl)phenyl]-7-[3-(trifluoromethyl)pyridin-2-yl]-6,7,8,9-tetrahydro-5H-pyrimido[4,5-d]azepin-4-amine] | < 4.70
2 | FC(F)(F)c1ccc(Nc2nc(N3CCCCC3)nc3c2CCN(c2ncccc2C(F)(F)F)CC3)nc1 [Example 250, 2-Piperidin-1-yl-7-[3-(trifluoromethyl)pyridin-2-yl]-N-[5-(trifluoromethyl)pyridin-2-yl]-6,7,8,9-tetrahydro-5H-pyrimido[4,5-d]azepin-4-amine] | 7.05
3 | CC(C)c1nc2c(c(Nc3ccc4nsnc4c3)n1)CCN(c1ncccc1C(F)(F)F)CC2 [Example 148, Benzo[1,2,5]thiadiazol-5-yl-[2-isopropyl-7-(3-trifluoromethyl-pyridin-yl)-6,7,8,9-tetrahydro-5H-pyrimido[4,5-d]azepin-4-yl]-amine] | 5.66
4 | CC(C)(C(=O)O)c1ccc(Nc2nc(N3CCCCC3)nc3c2CCN(c2ncccc2C(F)(F)F)CC3)cc1 [Example 186, 2-Methyl-2-[4-({2-piperidin-1-yl-7-[3-(trifluoromethyl)pyridin-2-yl]-6,7,8,9-tetrahydro-5H-pyrimido[4,5-d]azepin-4-yl}amino)phenyl]propanoic acid] | 6.85
5 | FC1(F)CCN(c2nc3c(c(Nc4ccc(C(F)(F)F)cc4)n2)CCN(c2ncccc2C(F)(F)F)CC3)CC1 [Example 242, 2-(4,4-Difluoropiperidin-1-yl)-N-[4-(trifluoromethyl)phenyl]-7-[3-(trifluoromethyl)pyridin-2-yl]-6,7,8,9-tetrahydro-5H-pyrimido[4,5-d]azepin-4-amine] | 7.05
6 | CC(C)(C)c1ccc(Nc2nc(-c3ccncc3)nc3c2CCN(c2ncccc2C(F)(F)F)CC3)cc1 [Example 168, N-[4-(1,1-Dimethylethyl)phenyl]-2-pyridin-4-yl-7-[3-(trifluoromethyl)pyridin-2-yl]-6,7,8,9-tetrahydro-5H-pyrimido[4,5-d]azepin-4-amine trifluoroacetic acid salt] | 7.52
7 | CC(C)N(C)c1nc2c(c(Nc3ccc(C(F)(F)F)nc3)n1)CCN(c1ncccc1C(F)(F)F)CC2 [Example 266, N^2-Methyl-N^2-(1-methylethyl)-7-[3-(trifluoromethyl)pyridin-2-yl]-N^4-[6-(trifluoromethyl)pyridin-3-yl]-6,7,8,9-tetrahydro-5H-pyrimido[4,5-d]azepine-2,4-diamine] | 6.35
8 | CS(=O)(=O)c1nc2c(c(Nc3ccc(C(F)(F)F)cc3)n1)CCN(c1ncccc1C(F)(F)F)CC2 [Example 53, [2-Methanesulfonyl-7-(3-trifluoromethyl-pyridin-2-yl)-6,7,8,9-tetrahydro-5H-pyrimido[4,5-d]azepin-4-yl]-(4-trifluoromethyl-phenyl)-amine] | < 5.17
9 | CN(C)c1nc2c(c(Nc3ccc(C(F)(F)F)c(Cl)c3)n1)CCN(c1ncccc1C(F)(F)F)CC2 [Example 45, N^4-(3-Chloro-4-trifluoromethyl-phenyl)-N^2,N^2-dimethyl-7-(3-trifluoro-methyl-pyridin-2-yl)-6,7,8,9-tetrahydro-5H-pyrimido[4,5-d]azepine-2,4-diamine] | 7.05
10 | FC(F)(F)c1ccc(Nc2nc(OC3CCCCCC3)nc3c2CCN(c2ncccc2C(F)(F)F)CC3)cc1 [Example 336, 2-(Cycloheptyloxy)-N-[4-(trifluoromethyl)phenyl]-7-[3-(trifluoromethyl)pyridin-2-yl]-6,7,8,9-tetrahydro-5H-pyrimido[4,5-d]azepin-4-amine] | 5.79
11 | O=S(=O)(c1ccc(Nc2nc(OC3CCCC3)nc3c2CCN(c2ncccc2C(F)(F)F)CC3)cc1)C(F)(F)F [Example 319, 2-(Cyclopentyloxy)-7-[3-(trifluoromethyl)pyridin-2-yl]-N-{4-[(trifluoromethyl)sulfonyl]phenyl}-6,7,8,9-tetrahydro-5H-pyrimido[4,5-d]azepin-4-amine] | 6.62
12 | OCC1CCCCN1c1nc2c(c(Nc3ccc(C(F)(F)F)cc3)n1)CCN(c1ncccc1C(F)(F)F)CC2 (centres unmarked) [Example 259, [1-(4-{[4-(Trifluoromethyl)phenyl]amino}-7-[3-(trifluoromethyl)pyridin-2-yl]-6,7,8,9-tetrahydro-5H-pyrimido[4,5-d]azepin-2-yl)piperidin-2-yl]methanol] | 7.05
13 | CC(Oc1nc2c(c(Nc3ccc4c(c3)N(C)CCC4)n1)CCN(c1ncccc1C(F)(F)F)CC2)C1CCCCC1 (centres unmarked) [Example 316, 2-[(1-Cyclohexylethyl)oxy]-N-(1-methyl-1,2,3,4-tetrahydroquinolin-7-yl)-7-[3-(trifluoromethyl)pyridin-2-yl]-6,7,8,9-tetrahydro-5H-pyrimido[4,5-d]azepin-4-amine] | 5.93
14 | FC(F)(F)c1ccc(Nc2nc(Sc3ccccc3)nc3c2CCN(c2ncccc2C(F)(F)F)CC3)cc1 [Example 349, 2-(Phenylsulfanyl)-N-[4-(trifluoromethyl)phenyl]-7-[3-(trifluoromethyl)pyridin-2-yl]-6,7,8,9-tetrahydro-5H-pyrimido[4,5-d]azepin-4-amine] | 5.63
15 | O[C@H]1CCCN(c2nc3c(c(Nc4ccc(C(F)(F)F)cc4)n2)CCN(c2ncccc2C(F)(F)F)CC3)C1 [Example 94B, (S)-1-[4-(4-Trifluoromethyl-phenylamino)-7-(3-trifluoromethyl-pyridin-2-yl)-6,7,8,9-tetrahydro-5H-pyrimido[4,5-d]azepin-2-yl]-piperidin-3-ol trifluoroacetic acid salt] | 6.72
16 | FC(F)(F)c1ccc(Nc2nc(N[C@@H]3CCOC3)nc3c2CCN(c2ncccc2C(F)(F)F)CC3)nc1 [Example 263, N^2-[(3R)-Tetrahydrofuran-3-yl]-7-[3-(trifluoromethyl)pyridin-2-yl]-N^4-[5-(trifluoromethyl)pyridin-2-yl]-6,7,8,9-tetrahydro-5H-pyrimido[4,5-d]azepine-2,4-diamine] | 5.84
17 | CC(C)(C)c1ccc(Nc2nc(C3CC3)nc3c2CCN(c2ncccc2C(F)(F)F)CC3)cc1 [Example 3, (4-tert-Butyl-phenyl)-[2-cyclopropyl-7-(3-trifluoromethyl-pyridin-2-yl)-6,7,8,9-tetrahydro-5H-pyrimido[4,5-d]azepin-4-yl]-amine] | 7.02
18 | CC(C)c1nc2c(c(NCc3ccc(C(F)(F)F)cc3)n1)CCN(c1ncccc1C(F)(F)F)CC2 [Example 117, 2-(1-Methylethyl)-N-{[4-(trifluoromethyl)phenyl]methyl}-7-[3-(trifluoromethyl)pyridin-2-yl]-6,7,8,9-tetrahydro-5H-pyrimido[4,5-d]azepin-4-amine] | 4.87
19 | Cc1nc2c(c(Nc3ccc(C(F)(F)F)cc3)n1)CCN(c1ncccc1C(F)(F)F)CC2 [Example 16, [2-Methyl-7-(3-trifluoromethyl-pyridin-2-yl)-6,7,8,9-tetrahydro-5H-pyrimido-[4,5-d]azepin-4-yl]-(4-trifluoromethyl-phenyl)-amine] | 7.00
20 | CC(=O)c1ccc(Nc2nc(N3CCOCC3)nc3c2CCN(c2ncccc2C(F)(F)F)CC3)cc1 [Example 380, 1-[4-({2-Morpholin-4-yl-7-[3-(trifluoromethyl)pyridin-2-yl]-6,7,8,9-tetrahydro-5H-pyrimido[4,5-d]azepin-4-yl}amino)phenyl]ethanone] | 6.64

From patent publication US9422293B2 (priority 2006, dated 2016)
